Measurements taken from patent publication US9351974B2, “Substituted pteridinones for the treatment of cancer” (OSI Pharmaceuticals, LLC, priority 2011, dated 2016).

biological target: T1, His-tagged full-length RSK2 (RPS6KA3) (Homo sapiens, UniProt P51812); assay: RSK2 Omnia Assay for compound IC50 determination; format: biochemical; settings: ATP 15 μM, n=2, read-out: Mean RSK2 Biochem IC50
T1 construct: His-tagged full-length RSK2 (RPS6KA3, Invitrogen PV3323); His; purchased Invitrogen PV3323
How it was run: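 Continuous fluorescence assay (ex 360/em 485 nm) of SOX-peptide (Omnia ST Peptide 6, 5 μM) phosphorylation with ATP 15 μM (Km 16.3 μM). Enzyme was […], in pH 7.5 HEPES/MgCl2 buffer with 1% DMSO. IC50 came from 11-point threefold dilutions ([…]) by four-parameter fit of initial slopes, in duplicate; Ki by Cheng-Prusoff assuming competitive inhibition.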

T1 sequence (P51812 whole entry): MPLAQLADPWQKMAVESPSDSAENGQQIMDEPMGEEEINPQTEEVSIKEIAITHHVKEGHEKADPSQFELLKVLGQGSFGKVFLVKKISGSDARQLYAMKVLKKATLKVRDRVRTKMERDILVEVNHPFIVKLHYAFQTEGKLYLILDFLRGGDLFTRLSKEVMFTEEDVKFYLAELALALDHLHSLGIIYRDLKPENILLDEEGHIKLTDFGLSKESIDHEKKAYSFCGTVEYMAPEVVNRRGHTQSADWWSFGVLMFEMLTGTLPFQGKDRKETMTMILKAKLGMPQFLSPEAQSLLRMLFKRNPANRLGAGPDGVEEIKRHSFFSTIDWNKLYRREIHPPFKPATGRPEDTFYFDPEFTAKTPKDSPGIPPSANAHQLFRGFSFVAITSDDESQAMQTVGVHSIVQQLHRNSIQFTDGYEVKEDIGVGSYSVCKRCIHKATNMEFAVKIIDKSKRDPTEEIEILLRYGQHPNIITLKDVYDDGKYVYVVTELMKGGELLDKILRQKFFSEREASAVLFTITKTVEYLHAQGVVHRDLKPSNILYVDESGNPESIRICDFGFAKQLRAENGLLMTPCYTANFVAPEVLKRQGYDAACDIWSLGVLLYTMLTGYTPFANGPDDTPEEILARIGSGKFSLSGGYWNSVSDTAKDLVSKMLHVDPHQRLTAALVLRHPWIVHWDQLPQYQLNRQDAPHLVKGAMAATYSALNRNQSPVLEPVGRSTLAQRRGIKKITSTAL

Row | SMILES | IC50 [nM]
1 | COc1ccc(N2C(=O)[C@@H](C)N(C3CCOCC3)c3nc(Nc4cc(F)c5[nH]ncc5c4)ncc32)cc1OC [compound 188, (7R)-5-(3,4-dimethoxyphenyl)-2-[(7-fluoro-1H-indazol-5-yl)amino]-7-methyl-8-(tetrahydro-2H-pyran-4-yl)-7,8-dihydropteridin-6(5H)-one] | ≤ 100
2 | C[C@@H]1C(=O)N(c2cccc(C#N)c2)c2cnc(Nc3cc4cn[nH]c4cc3F)nc2N1C1CCCCC1 [Example 56, 3-[(7R)-8-cyclohexyl-2-[(6-fluoro-1H-indazol-5-yl)amino]-7-methyl-6-oxo-7,8-dihydropteridin-5(6H)-yl]benzonitrile] | ≤ 100
3 | C[C@@H]1C(=O)N(c2ccccc2)c2cnc(Nc3ccc4[nH]ncc4c3)nc2N1Cc1ccccc1 [Example 76, (7R)-8-benzyl-2-(1H-indazol-5-ylamino)-7-methyl-5-phenyl-7,8-dihydropteridin-6(5H)-one] | ≤ 100
4 | C[C@@H]1C(=O)N(c2cccnc2)c2cnc(Nc3cc(F)c4[nH]ncc4c3)nc2N1C1CCC(C)(C)CC1 [Example 208, (7R)-8-(4,4-dimethylcyclohexyl)-2-[(7-fluoro-1H-indazol-5-yl)amino]-7-methyl-5-(pyridin-3-yl)-7,8-dihydropteridin-6(5H)-one] | ≤ 100
5 | C[C@@H]1C(=O)N(c2cccc(C#N)c2)c2cnc(Nc3cc(Cl)c4[nH]ncc4c3)nc2N1C1CCCCC1 [compound 97, 3-[(7R)-2-[(7-chloro-1H-indazol-5-yl)amino]-8-cyclohexyl-7-methyl-6-oxo-7,8-dihydropteridin-5(6H)-yl]benzonitrile] | ≤ 100
6 | C[C@@H]1C(=O)N(c2cccc(C#N)c2)c2cnc(Nc3ccc4[nH]ncc4c3F)nc2N1C1CCCC1 [Example 216, 3-[(7R)-8-cyclopentyl-2-[(4-fluoro-1H-indazol-5-yl)amino]-7-methyl-6-oxo-7,8-dihydropteridin-5(6H)-yl]benzonitrile] | ≤ 100
7 | C[C@@H]1C(=O)N(c2cccc(F)c2)c2cnc(Nc3cc(F)c4[nH]ncc4c3)nc2N1C1CCOCC1 [compound 189, (7R)-2-[(7-fluoro-1H-indazol-5-yl)amino]-5-(3-fluorophenyl)-7-methyl-8-(tetrahydro-2H-pyran-4-yl)-7,8-dihydropteridin-6(5H)-one] | ≤ 100
8 | CC1C(=O)N(c2ccccc2)c2cnc(Nc3ccc4[nH]ncc4c3)nc2N1C1CCCC1 (stereo not shown) [Example 64, 8-cyclopentyl-2-(1H-indazol-5-ylamino)-7-methyl-5-phenyl-7,8-dihydropteridin-6(5H)-one] | ≤ 100
9 | C[C@@H]1C(=O)N(c2cnn(C)c2)c2cnc(Nc3ccc4[nH]ncc4c3)nc2N1C1CCCCC1 [Example 58, (7R)-8-cyclohexyl-2-(1H-indazol-5-ylamino)-7-methyl-5-(1-methyl-1H-pyrazol-4-yl)-7,8-dihydropteridin-6(5H)-one] | ≤ 100
10 | C[C@@H]1C(=O)N(c2ccccc2)c2cnc(Nc3ccc4[nH]ncc4c3)nc2N1CCCO [Example 77, (7R)-8-(3-hydroxypropyl)-2-(1H-indazol-5-ylamino)-7-methyl-5-phenyl-7,8-dihydropteridin-6(5H)-one] | 100 to 1000
11 | CC(C)CCN1c2nc(Nc3cc(F)c4[nH]ncc4c3)ncc2N(c2cccc(C#N)c2)C(=O)[C@H]1C [Example 86, 3-[(7R)-2-[(7-fluoro-1H-indazol-5-yl)amino]-7-methyl-8-(3-methylbutyl)-6-oxo-7,8-dihydropteridin-5(6H)-yl]benzonitrile] | ≤ 100
12 | C[C@@H]1C(=O)N(c2cccc(C#N)c2)c2cnc(Nc3ccc4[nH]ncc4c3F)nc2N1C1CCOCC1 [compound 185, 3-[(7R)-2-[(4-fluoro-1H-indazol-5-yl)amino]-7-methyl-6-oxo-8-(tetrahydro-2H-pyran-4-yl)-7,8-dihydropteridin-5(6H)-yl]benzonitrile] | ≤ 100
13 | COc1ccc(N2C(=O)[C@@H](C)N(C3CCCCC3)c3nc(Nc4cc(F)c5[nH]ncc5c4)ncc32)cc1OC [compound 132, (7R)-8-cyclohexyl-5-(3,4-dimethoxyphenyl)-2-[(7-fluoro-1H-indazol-5-yl)amino]-7-methyl-7,8-dihydropteridin-6(5H)-one] | ≤ 100
14 | CC(C)CCN1c2nc(Nc3cc(F)c4[nH]c(=O)oc4c3)ncc2N(c2cccc(C#N)c2)C(=O)[C@H]1C [Example 90, 3-[(7R)-2-[(4-fluoro-2-oxo-2,3-dihydro-1,3-benzoxazol-6-yl)amino]-7-methyl-8-(3-methylbutyl)-6-oxo-7,8-dihydropteridin-5(6H)-yl]benzonitrile] | ≤ 100
15 | C[C@@H]1C(=O)N(c2ccc(S(C)(=O)=O)cc2)c2cnc(Nc3ccc4[nH]ncc4c3)nc2N1C1CCCCC1 [Example 40, (7R)-8-cyclohexyl-2-(1H-indazol-5-ylamino)-7-methyl-5-[4-(methylsulfonyl)phenyl]-7,8-dihydropteridin-6(5H)-one] | ≤ 100

Now from value to compound:

Row | IC50 [nM] | SMILES
16 | ≤ 100 | COc1ccc(N2C(=O)[C@@H](C)N(C3CCC(F)(F)CC3)c3nc(Nc4cnc5[nH]ncc5c4)ncc32)cc1C#N [compound 279, 5-[(7R)-8-(4,4-difluorocyclohexyl)-7-methyl-6-oxo-2-(1H-pyrazolo[3,4-b]pyridin-5-ylamino)-7,8-dihydropteridin-5(6H)-yl]-2-methoxybenzonitrile]
17 | ≤ 100 | C[C@@H]1C(=O)N(c2ccc(N3CCN(C)CC3)c(C#N)c2)c2cnc(Nc3cc(F)c4[nH]ncc4c3)nc2N1C1CCOCC1 [compound 206, 5-[(7R)-2-[(7-fluoro-1H-indazol-5-yl)amino]-7-methyl-6-oxo-8-(tetrahydro-2H-pyran-4-yl)-7,8-dihydropteridin-5(6H)-yl]-2-(4-methylpiperazin-1-yl)benzonitrile]
18 | ≤ 100 | C[C@@H]1C(=O)N(c2cccnc2)c2cnc(Nc3cc(F)c4[nH]ncc4c3)nc2N1C1CCOCC1 [compound 191, (7R)-2-[(7-fluoro-1H-indazol-5-yl)amino]-7-methyl-5-(pyridin-3-yl)-8-(tetrahydro-2H-pyran-4-yl)-7,8-dihydropteridin-6(5H)-one]
19 | ≤ 100 | COc1ccc(N2C(=O)[C@@H](C)N([C@H]3CC[C@H](C)CC3)c3nc(Nc4cnc5[nH]ncc5c4)ncc32)cc1C#N [compound 245, 2-Methoxy-5-[(7R)-7-methyl-8-(trans-4-methylcyclohexyl)-6-oxo-2-(1H-pyrazolo[3,4-b]pyridin-5-ylamino)-7,8-dihydropteridin-5(6H)-yl]benzonitrile]
20 | ≤ 100 | C[C@@H]1C(=O)N(c2cccc(C#N)c2)c2cnc(Nc3ccc(C(N)=O)c(F)c3)nc2N1C1CCC(F)(F)CC1 [compound 272, 4-{[(7R)-5-(3-cyanophenyl)-8-(4,4-difluorocyclohexyl)-7-methyl-6-oxo-5,6,7,8-tetrahydropteridin-2-yl]amino}-2-fluorobenzamide]
21 | ≤ 100 | COc1ccc(N2C(=O)[C@@H](C)N(C3CCOCC3)c3nc(Nc4cnc5[nH]ncc5c4)ncc32)cc1C#N [compound 200, 2-methoxy-5-[(7R)-7-methyl-6-oxo-2-(1H-pyrazolo[3,4-b]pyridin-5-ylamino)-8-(tetrahydro-2H-pyran-4-yl)-7,8-dihydropteridin-5(6H)-yl]benzonitrile]
22 | > 1000 | C[C@@H]1C(=O)N(c2cccc(C#N)c2)c2cnc(Nc3ccc4[nH]ncc4c3)nc2N1[C@H]1CC[C@@H](O)CC1 [compound 309, 3-[(7R)-8-(cis-4-hydroxycyclohexyl)-2-(1H-indazol-5-ylamino)-7-methyl-6-oxo-7,8-dihydropteridin-5(6H)-yl]benzonitrile]
